Like-named read-outs stand apart in the source and are kept apart here. Some results are limits rather than exact numbers.

In one assay the test system is rat hepatoma cells. Kind of assay: Cholesterol Esterification Assay (esterification of plasma membrane cholesterol). The format is cell-based. An excerpt:
Table 1. […] Table 1. Effects of synthetic and plant-derived compounds on cholesterol homeostasis. […]

The next assay concerns endogenous Shh signaling. Kind of assay: Midline neural plate/notochord explant assay of endogenous Shh signaling. The format is cell-based, chick.
In a further assay the target is T1, Shh (Mus musculus, UniProt Q62226).
T1 construct: expressed in transfected cells; host or cells: HK293 cells, Ecdysone-Inducible Mammalian Expression System (Invitrogen)
The assay is described as follows: Shh autoprocessing in stably transfected HK293 cells (immunoblot). The format is cell-based. The source says: To examine potential effects of these compounds on Shh processing we utilized HK293 cells cultured in lipid-depleted serum and carrying a stable integrated construct for expression of Shh under ecdysone-inducible control (47). Shh protein expression in these cells can be induced by addition of muristerone A, an ecdysone analog.
• 1. M. Hammerschmidt, A. Brook, A. P. McMahon, Trends Genet, 13, 14-21 (1997). • 2. C. Chiang, et al., Nature, 383,407-413 (1996). • 3. Y. Tanabe, T. M. Jessell, Science 274, 1115-1123 (1996). • 4. T. P. Yamaguchi, Curr. Opin. Genet. Dev. 7, 513-518 (1997). • 5. N. Shubin, C. Tabin, S. Carroll, Nature 388, 639-648 (1997). • 6. A. E. Oro, et al., Science 276, 817-821 (1997). • 7. M. M. Cohen, K. K. Sulik, J. Craniofac. Genet. Deve. Biol. 12, 196-244 (1992). • 8. E. Belloni, et al., Nature Genet. 14, 353-356 (1996). • 9. E. Roessler, et al., Nature Genet. 14, 357-360 (1996). • 10. J. A. Porter, et al., Nature 374, 363-366 (1995). • 11. J. A. Porter, K. E. Young, P. A. Beacy, Science 274, 255-259 (1996b). • 12. J. J. Lee, et al., Science 266, 1528-1537 (1994). • 13. J. A. Porter, et al., Cell 86, 21-34 (1996a). • 14. C. Roux, Arch. Franc. Pediatr. 21, 451-464 (1964). • 15. C. Roux, C. R. Soc. Biol. 160, 1353-1357 (1966). • 16. D. B. Dehart, L. Lanoue, G. S. Tinit, K. K. Sulik, Am J. Med. Genet. 68, 328-337 (1997). • 17. M. Kraml, J. F. Bagli, D. Dvornik, Biochem. and Biophysical Res. Com. 15, 455-457 (1964). • 18. J. Avigan, D. Steinberg, H. E. Vroman, M. J. Thompson, E. Mosettig, J. Biol. Chem 235, 3123-3126 (1960). • 19. R. B. Clayton, A. N. Nelson, I. D. Frantz Jr., J. Lipid Res. 4, 166-178 (1963). • 20. J. Aufenanger, J. Pill, K. Stegmeier, F. H. Schmidt, Horm. Metabol. Res. 17, 612-613 (1986). • 21. […] G. Popjak, A. Meenean, E. J. Parish, W. D. Nes, J. Biol. Chem 264,6230-6238 (1989). • 23. H. Yoshikawa, Brain Deve. 13, 115-120 (1991). • 24. R. I. Kelley, et al., Am. J. Of Med. Gen. 66, 478-484 (1996). • 25. G. S. Tint, et al., New England Journal of Medicine 330, 107-113 (1994). • 26. T.E. Willnow, et al., Proc. Natl. Acad. Sci USA 93, 8460-8464 (1996). • 27. S. Stefansson, D. A. Chappell, K. M. Argraves, D. K. Strickland, W. S. Argraves, J. Biol. Chem. 270, 19417-19421 (1995). • 28. W. Binns, L. F. James, J. L. Shupe, G. Everett, Am. J. Vet. Res. 24, 1164-1174 (1963). • 29. R. F. Keeler, W. Binns, Teratology 1, 5-10 (1968). • 30. P. A. Beachy, et al., CSH Symp. Quant. Biol. 62, in press (1997). • 31. E. D. Carstea, et al., Science 277, 228-231 (1997). • 32. S. K. Loftus, et al., Science 277, 232-235 […]. • 33. L. V. Goodrich, L. Milenkovic, K. M. Higgins, M. P. Scott, Science 277, 1109-1113 (1997). • 34. H. Kumagai, K. T. Chun, R. D. Simoni, J. Biol. Chem. 270, 19107-19113 (1995). • 35. G. Gil, J. R. Faust, D. J. Chin, J. L. Goldstien, M. S. Brown, Cell 41, 249-258 (1985). • 36. X. Hua, A. Nohturfft, J. L. Goldstein, M. S. Brown, Cell 87, 415-426 (1996). • 37. M. S. Brown, J. L. Goldstein, Cell 89, 331-340 (1997). • 38. M. M. Bryden, C. Perry, R. F. Keeler, Teratology 8, 18-28 (1973). • 39. M. L. Omnell, F. R. P. Sim, R. F. Keeler, L. C. Harne, K. W. Brown, Teratology 42, 105-119 (1990). • 40. Fertile chick eggs (white leghorn) were placed in a humidified incubator at 37.5° C in a rotating tray for 14 hours. […] The window was taped and the eggs incubated for an additional 4 days. The embryos were dissected in phosphate buffered saline (PBS, pH 7.2).
(Immunoblotting shows a protein as a band on a membrane.)

The next assay has as its system Shh-N. Kind of assay: Intermediate neural plate explant response to exogenous Shh-N protein. The format is cell-based, chick.
The mark [1] stands for this setting: read-out: Percent Inhibition (incorporation of label into cholesteryl ester*) ^3H-Cholesterol.
Setting [2] is: read-out: Percent Inhibition (incorporation of label into cholesteryl ester*) ^14C-Oleic Acid.

T1 sequence (Q62226 25-437): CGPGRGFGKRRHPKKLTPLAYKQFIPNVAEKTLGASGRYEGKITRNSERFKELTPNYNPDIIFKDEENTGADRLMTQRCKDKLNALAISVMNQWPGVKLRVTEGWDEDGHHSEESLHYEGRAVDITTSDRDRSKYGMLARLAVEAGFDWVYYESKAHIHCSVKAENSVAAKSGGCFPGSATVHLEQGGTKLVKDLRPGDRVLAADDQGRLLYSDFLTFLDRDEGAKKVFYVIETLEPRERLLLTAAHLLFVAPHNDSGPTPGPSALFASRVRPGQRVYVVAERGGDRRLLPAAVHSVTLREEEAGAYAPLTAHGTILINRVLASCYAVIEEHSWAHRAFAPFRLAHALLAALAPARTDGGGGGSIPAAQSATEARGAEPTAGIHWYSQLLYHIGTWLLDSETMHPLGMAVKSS

`CC1=C2C[C@H]3[C@@H](CC=C4C[C@@H](O)CC[C@@]43C)[C@@H]2CC[C@]12O[C@@H]1C[C@H](C)CN[C@H]1[C@H]2C` [Cyclopamine, cyclopamine]: in the assay with rat hepatoma cells (setting [1]), the inhibition at 2.5 µM came to 48%, the inhibition at 5 µM came to 67% and the inhibition at 10 µM is 79%. In the assay with rat hepatoma cells (setting [2]), the inhibition at 2.5 µM came to 45%, the inhibition at 5 µM came out at 62% and the inhibition at 10 µM was found to be 74%. Besides, in the assay with endogenous Shh signaling, the “Higher doses that fully inhibit HNF3β and Isl-1 induction” value was 1.0 µM; the “Intermediate doses that block induction of HNF3β while permitting induction of Isl-1” value is 0.25 µM. The “Shh-Np production and accumulation of unprocessed precursor” value at Shh was “did not diminish Shh-Np production nor induce accumulation of unprocessed precursor”. Moreover, in the assay with Shh-N, the “concentration that inhibits the repression of Pax7 expression by 2 nM Shh-N” value was 0.0625 µM; the “doses at which HNF3β and Isl-1 induction are completely blocked” value stood at 0.25 µM; the “intermediate levels at which induction of HNF3β is blocked while induction of Isl-1 is maintained or expanded” value is 0.125 µM.
Regarding `C[C@H]1CC[C@]2(NC1)O[C@H]1C[C@H]3[C@@H]4CC[C@H]5C[C@@H](O)CC[C@]5(C)[C@H]4CC[C@]3(C)[C@H]1[C@@H]2C` [Tomatidine, tomatidine], the inhibition at 2.5 µM with rat hepatoma cells (2.5 µM, read-out: Percent Inhibition (incorporation of label into cholesteryl ester*) ^3H-Cholesterol) is 31%; with rat hepatoma cells (2.5 µM, read-out: Percent Inhibition (incorporation of label into cholesteryl ester*) ^14C-Oleic Acid), 30%. Besides, the inhibition at 5 µM came to 33% in the assay with rat hepatoma cells (5.0 µM, read-out: Percent Inhibition (incorporation of label into cholesteryl ester*) ^3H-Cholesterol) and 64% with rat hepatoma cells (5.0 µM, read-out: Percent Inhibition (incorporation of label into cholesteryl ester*) ^14C-Oleic Acid). Also, the inhibition at 10 µM worked out at 39% in the assay on rat hepatoma cells (10 µM, read-out: Percent Inhibition (incorporation of label into cholesteryl ester*) ^3H-Cholesterol) and 52% with rat hepatoma cells (10 µM, read-out: Percent Inhibition (incorporation of label into cholesteryl ester*) ^14C-Oleic Acid). Besides, the “expression of HNF3β and Isl-1” value in the assay on endogenous Shh signaling (midline explants, 50 µM (Fig. 3C)) is “unable to block expression of HNF3β and Isl-1”. Also, the “Shh-Np production and accumulation of unprocessed precursor” value at Shh (added during the 24-hour induction period, doses up to 5-fold higher than those required to completely inhibit Shh signaling) is recorded as “did not diminish Shh-Np production nor induce accumulation of unprocessed precursor”. At Shh (species ∼ 1.9 kD larger, lanes 10, 11), the “slower migrating Shh species, signal sequence cleavage” value is on record as “minor inhibition of signal sequence cleavage”. The “concentrations producing partial inhibition relative to those required for complete inhibition by jervine and cyclopamine” value in the assay with Shh-N came to 100200 fold. In addition, the “concentration that inhibits the repression of Pax7 expression by 2 nM Shh-N” value with Shh-N (2 nM Shh-N, 20 hours) is > 50 µM. Further, the “effect on HNF3β and Isl-1 induction” value in the assay on Shh-N (50 µM, 25 nM Shh-N) is “markedly reduces HNF3β induction and enhances Isl1-1 induction”. The “effect on HNF3β and Isl-1 expression” value in the assay with Shh-N (Tomatidine at 25 nM (so in the source), 25 nM Shh-N) was “slight inhibitory effect”.

(Values after EP1067939B1, “USE OF STEROIDAL ALKALOID DERIVATIVES AS INHIBITORS OF HEDGEHOG PROTEIN SIGNALING PATHWAYS” (The Johns Hopkins University, priority 1998, dated 1999).)
